Patent US11353448B2, “Methods and compositions for quantifying metabolites and proteins from single cells” (CALIFORNIA INSTITUTE OF TECHNOLOGY, priority 2015, dated 2022)
“Also recorded” adds a separate entry of the source. Where two headings read alike, the source gives them in different places.

Columns and labels:
[1] = tested on: U87/EGFRV3 cells; test: Glutamine analog uptake (Cyclodextrin-Cy3 / Adamantane-BHQ2 FRET readout); format: cell-based, human; details: 1 mM analog, 20 min; with glutamine at 4° C. and 37° C., without glutamine at 37° C.
Method: FIG. 5B is a graph of cell uptake experiments using the immunofluorescence assay depicted in FIG. 2C to assay Compounds 1-8 as shown in FIG. 5A in the presence of glutamine at 4° C. (left bars) and 37° C. (middle bars), and in the absence of glutamine at 37° C. (right bars), according to embodiments of the present invention.
U87/EGFRV3 single cells were resuspended in DMEM media or glutamine-free DMEM media (Thermo Fisher Scientific) with 1 mM of glutamine analog and incubated at 37° C. or 4° C. for 20 min. Subsequently, the cells were collected via centrifugation (500 g, 5 min) and washed with cold PBS for three times. Then, the cells were lysed using cell lysis buffer (Cell Signaling, Boston, Mass., U.S.A.). To quantify the analog uptake, the lysate was mixed with an Adamantane-BHQ2 solution (100 nM in water) incubated on the glass slide with surface hybridized Cyclodextrin-Cy3-DNA at room temperature for 1 hr. the glass slide was then washed and spin dried. The fluorescence signal on the glass slide was read out using an Axon GenePix 4400A scanner.

[2] = tested on: hexokinase; test: Coupled enzyme kinetics measurement (hexokinase/G6PDH, NADH absorption at 340 nm); format: biochemical
Text: Enzymes and substrate solutions from a glucose assay kit (Sigma-Aldrich) were used without purification. […] First, hexokinase converts glucose into glucose-6-phosphate, which consumes one equivalent of ATP. Then, the glucose-6-phosphate is converted to gluconate-6-phosphate by glucose-6-phosphate dehydrogenase (G6PDH). At the same time, this process converts NAD to NADH, which has a distinct absorption band at 340 nm. By continuously measuring the solution absorption, the kinetics of the first reaction can be indirectly monitored. […] This will result in a much slower generation of NADH. […] This proves that Gluc-Bio can bind to hexokinase and could be a substrate. […] In this experiment, the amount of ATP was controlled to be much less than that of glucose. If Gluc-Bio is simply an inhibitor and cannot be converted by hexokinase, it will not consume the ATP pool in the solution, and the final amount of NADH will be the same as that of glucose alone.

[3] = tested on: GBM39 single cells; test: Validation of the Gluc-Bio uptake; format: cell-based, human; details: 20 ug/mL Gluc-Bio, 20 min; 17.5 mM vs 25 mM glucose; 37° C. vs 4° C.
Method: FIG. 4C is a graph of cell uptake experiments using the immunofluorescence assay depicted in FIG. 2B to assay Gluc-Bio uptake in GBM39 primary neurosphere cells at 37° C. in the presence of […] glucose and 25 mM glucose, and at 4° C. at 17.5 mM glucose as indicated, showing that Gluc-Bio competes with glucose, according to embodiments of the present invention.
GBM39 single cells were suspended in normal media (17.5 mM glucose) or high glucose media (25 mM glucose) at a concentration of 0.5 M cells/mL. These cells were incubated with 20 ug/mL of Gluc-Bio at 37° C. or 4° C. for 20 min. After incubation, cells were washed with cold PBS for three times and then lysed for quantifying the Gluc-Bio.

[4] = biological target: T1, SLC1A5 neutral amino acid transporter (Homo sapiens, UniProt Q15758); test: Uptake of Compound 3 with the SLC1A5 transporter inhibited (sodium free, siRNA); format: cell-based; details: U87 cells
T1 construct: Compound 3 was further analyzed for uptake in U87 cells; endogenous in cells; host or cells: U87 (U87/EGFRV3) glioblastoma cells
T1 sequence (Q15758 1-541): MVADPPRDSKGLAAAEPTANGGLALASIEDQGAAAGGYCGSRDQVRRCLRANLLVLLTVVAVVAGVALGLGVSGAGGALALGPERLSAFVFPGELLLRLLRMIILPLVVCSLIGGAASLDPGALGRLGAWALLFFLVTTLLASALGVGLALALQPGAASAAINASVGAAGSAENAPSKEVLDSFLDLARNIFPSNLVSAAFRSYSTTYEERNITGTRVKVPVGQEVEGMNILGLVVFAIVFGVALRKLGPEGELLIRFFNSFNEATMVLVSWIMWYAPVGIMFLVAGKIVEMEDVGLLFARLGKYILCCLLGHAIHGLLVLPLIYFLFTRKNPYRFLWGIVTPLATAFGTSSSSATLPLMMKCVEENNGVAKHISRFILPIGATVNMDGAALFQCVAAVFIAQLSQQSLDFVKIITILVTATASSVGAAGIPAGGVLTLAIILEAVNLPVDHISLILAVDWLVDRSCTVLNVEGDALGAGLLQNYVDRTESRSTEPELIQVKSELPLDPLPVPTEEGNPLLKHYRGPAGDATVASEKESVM
Method: In some embodiments of the present invention, a method for measuring glutamine uptake in a cell includes incubating the cell with a glutamine analog, followed by lysis of the cell, and quantification of the amount of the glutamine analog in the cell. […] These 8 glutamine analogs (adamantane conjugates) were assayed for their ability to substitute for glutamine. […] As such, the Compound 3 Ad-Glutamine analog is a validated substitute for glutamine.

[5] = tested on: U87 cells; test: Glutamine kit assay (Abcam, ab83389), cells incubated with Compound 3; format: cell-based, human; details: U87 cells alone vs incubated with Compound 3
[6] = tested on: cell growth; test: Cell toxicity of Compound 3 Ad-Glutamine analog (cell numbers normalized to control); format: cell-based; details: indicated concentrations, FIG. 5F
Text: FIG. 5F is a graph showing cell toxicity of the Compound 3-Ad-Glutamine analog at the indicated concentrations with cell numbers normalized to the control sample, according to embodiments of the present invention.

[7] = tested on: U87EGFRvIII cells
Method: A multiplex assay incorporating the glutamine uptake assay according to embodiments of the present invention was performed using a SCBC platform in U87 human glioblastoma cells having amplified epidermal growth factor receptor (EGFR) expression.
U87/EGFRV3 cells were provided by Prof. Paul S. Mischel (UCSD, San Diego, U.S.A.) and cultured in Dulbecco's modified eagle media (DMEM, Gibco, ThermoFisher Scientific, Grand Island, N.Y., U.S.A.) supplemented with 10% of fetal bovine serum (Thermo Fisher Scientific) and 100 U/mL of penicillin and streptomycin in a humidified 5% CO2 (v/v) incubator, at 37° C.
In order to better understand the integrated single cell metabolic/proteomic data, a simplified semi-quantitative metabolic model (FIG. 16A) was developed. The focus of this model includes the glycolysis pathway and the TCA cycle, which cover the major contributors of cellular energy generation. Glucose is used by cells for many tasks, but by combining the measurement of glucose uptake with measurements of those enzymes that process glucose for energy production and lactate production, an estimation may be made of the contributions of glucose to glycolysis and to the TCA cycle (FIGS. 16A-16B). It assumed that each glucose molecule consumed yields 8 ATP equivalents through glycolysis, and an additional 22 ATP equivalents through the TCA cycle. The numbers here are not the actual ATP production number, but an energy-currency conversion. The glycolysis part generates 2 ATP and 2 NADH molecules per glucose, and each NADH is ultimately worth 3 ATP, thus making 8 ATP total. […] For glutamine that is taken up by the cell, there are multiple possible outcomes. It can enter the TCA cycle to generate energy, or it can be exported in exchange for other amino acids, or participate in biosynthesis of glutathione and proteins, as examples. On this basis, glutamine may be considered as a special currency, which can either be used directly by the cell to produce energy, or in exchange of other necessary nutrients or to perform some crucial metabolic function. From a global point of view, the active uptake of glutamine reflects a metabolic demand from the cell, regardless how it is used. In order to have an integrated picture of the potential energy production from glutamine and glucose, we simply assume that all glutamine participates in the TCA cycle, so that each glutamine molecule affords 8.5 ATP equivalents. To calculate the energy production for each pathway, glucose and glutamine uptake levels as well as related metabolic enzyme levels are normalized into the range between 0 and 1 across all samples. Subsequently, the normalized analyte levels (a) were used and a steady-state approximation (FIG. 16E) to calculate the energy production rate for each step (FIG. 16B). Several energy indices were defined based on the model. The energy production index (EPI) assesses the total energy production rate through glucose and glutamine metabolism, while the energy source index (ESI) measures the energy contribution ratio between glucose and glutamine. The glycolysis index (GI) weighs the contribution of glycolysis in total glucose-based energy production, and depends upon glucose uptake, as well as the levels of phosphofructokinase (PFK) and pyruvate kinase isozyme M2 (PKM2). In addition to the energy indices, we use the cAMP and cGMP levels to define an energy frustration index (EFI), and use the GSH level to define a redox frustration index (RFI).

[8] = tested on: GBM39 cells; test: SCBC multiplex metabolite/protein assay before and after erlotinib; format: cell-based, human; details: 24 h erlotinib treatment (1 μM)
Method: Using a SCBC as shown in FIGS. 1A and 1B and further disclosed herein, simultaneous quantification of a panel of metabolites and proteins, including cAMP, cGMP, glucose uptake, glutathione along with phosphofructokinase (PFK), phospho-acetyl-CoA Caraboxylase (pACAC), phospho-liver kinase B1 (pLKB1), phosphoinositide-dependent kinase 1 (PDK), hexokinase 2 (HK2), pyruvate kinase M2 (PKM2), and phospho-carbohydrate kinase family protein (pPFKB2) was performed in single cells separated from the GBM39 neurosphere tumor model. […] For the drug treatment, 1 million cells were suspended in 10 mL of media and were cultured for several days to form neurospheres. […] The cells were then treated for designated periods of time and processed for tests. Cell loading. The upper channels were briefly rinsed with cell culture medium to minimize perturbation to the cells. […] The suspension was loaded into the SCBC device and compartmentalized into 310 isolated microchambers with single cell or defined number of cells in each chamber. The cell loading step results in a random distribution of different numbers of cells in different chambers, the statistical distribution can be adjusted by varying the loading concentration and the flow speed. […] The extra cells were washed away by 1×PBST. The images of each chamber were recorded using a microscope-CCD camera and used for subsequent cell counting.

[9] = tested on: U87EGFRvIII cells; test: Growth curves under erlotinib; format: cell-based, human; details: 1 uM erlotinib
Text: U87/EGFRV3 cells were provided by Prof.

`N[C@@H](CC(=O)NC12CC3CC(CC(C3)C1)C2)C(=O)O` [Compound 8, N4-(adamantan-1-yl)asparagine] was tested, and the “cell uptake of glutamine analog: dependence on temperature and on glutamine” value [1] was “temperature-dependency and glutamine-dependency”.
In the case of `O=C(CCCC[C@@H]1SC[C@@H]2NC(=O)N[C@@H]21)N[C@H]1C(O)O[C@H](CO)[C@@H](O)[C@@H]1O` (stereo partly drawn) [Gluc-Bio], the “generation of NADH in the presence of Gluc-Bio” value ([2]; 0.5 mM glucose and 0.5 mM Gluc-Bio vs 0.5 mM glucose alone) was “much slower than that of glucose alone”, the “final amount of NADH generated” value ([2]; ATP much less than glucose, addition of Gluc-Bio) was “less NADH was generated” and the substrate for hexokinase ([2]; conclusion from both experiments) was “is a substrate for hexokinase”. The “uptake of Gluc-Bio” value [3] was “inhibited by increasing the extracellular glucose concentration and by decreasing the temperature”.
For `NC(CCCNC(=O)C12CC3CC(CC(C3)C1)C2)C(=O)O` (stereo not drawn) [Compound 3, 5-(adamantane-1-carboxamido)-2-aminopentanoic acid], the “cell uptake of glutamine analog: dependence on temperature and on glutamine” value [1] was “temperature-dependency and glutamine-dependency”, the “cell uptake of Compound 3” value ([4]; siRNA knock-down of SLC1A5) was “inhibition of cell uptake” and the “Compound 3 fluorescence (uptake)” value ([4]; sodium free conditions) was “inhibition of Compound 3 fluorescence (uptake)”. For the same molecule, the “competition with cellular glutamine (absorbance)” value [5] was “competes with the cellular glutamine” and the “cell growth / cell toxicity” value [6] was “does not inhibit cell growth”.
For `C#Cc1cccc(Nc2ncnc3cc(OCCOC)c(OCCOC)cc23)c1` [erlotinib], the glutamine uptake ([7]; 1 uM erlotinib) was “increased”, the glucose uptake ([7]; 1 μM erlotinib) was “repressed” and the “levels of PFK and PKM2” value ([7]; 1 μM erlotinib) was “increased”. The glucose uptake ([7]; higher dose erlotinib (10 μM)) was “decreased”, the glutamine uptake ([7]; higher dose erlotinib (10 μM)) was “decreased” and the metabolic enzymes ([7]; higher dose erlotinib (10 μM)) was “repressed”. For the same molecule, the “cellular energy production (EPI)” value ([7]; higher drug concentration (10 μM)) was “inhibits cellular energy production”, the “activities of HK2” value [8] was “sharply reduced” and the “level of GSH” value [8] was “sharply reduced”. The “level of glucose uptake” value [8] was “sharply reduced” and the “cell growth (number of cells as a function of days)” value [9] was “not inhibited; also recorded: does not inhibit”.
